According to article PMC5049785, “Characterization of Novel Antimalarial Compound ACT-451840: Preclinical Assessment of Activity and Dose–Efficacy Modeling” (PLoS Medicine, 2016):

Legend:
[1] = in vivo
[2] = Pharmacokinetic study in healthy mice; format: in vivo, female NMRI mice
Method: Female NMRI mice were purchased from Harlan (Horst, The Netherlands) by Actelion Pharmaceuticals. ACT-451840 was formulated as a solution in corn oil and dosed via oral gavage at 10, 100, and 300 mg/kg. Serial blood samples were collected at 0.5, 2, 4, and 8 h after dosing from two mice and after 1, 3, 6, and 24 h from two other mice, creating composite PK profiles from, in total, four mice per dose. Blood samples were analyzed using liquid chromatography coupled to tandem mass spectrometry (LC-MS/MS) after protein precipitation. PK parameters were estimated using non-compartmental analysis from the composite profiles.

[3] = system: GFP-transfected P. berghei ANKA strain; assay: In vivo efficacy, P. berghei mouse model; parameters: species or system Plasmodium berghei in female NMRI mice; conditions: for infected mice cured: no detectable parasites on Day 30, n=5
Method: In vivo efficacy against P. berghei was conducted at the Swiss TPH as previously described, with the modification that female NMRI mice from Harlan (Horst, The Netherlands) (n = 3) were infected with a GFP-transfected P. berghei ANKA strain (kindly donated by A. P. Waters and C. J. Janse, Leiden University Medical Center, The Netherlands) and parasitemia was determined using standard flow cytometry techniques. ACT-451840 was dissolved or suspended in corn oil before dosing and administered 24 h after infection (single-dose regimen) or 24, 48, and 72 h after infection (triple-dose regimen). With the single-dose regimen, blood was collected on Day 3 (72 h after infection). Samples for the triple-dose regimens were collected on Day 4 (96 h after infection). Antimalarial activity was calculated as the difference between the mean percent parasitemia for the control and treated groups expressed as a percent relative to the control group, consisting of five mice. Control mice were euthanized on Day 4 in order to prevent death typically occurring on Day 6. For the consistency in PK/PD modeling, Day 5 instead of Day 6 was considered the day of death, because treated animals were always euthanized one day before their natural death for animal welfare reasons. Animals were considered cured if there were no detectable parasites on Day 30 post-infection. To confirm the reliability of this assumption, blood from the surviving mice in curative experiments was inoculated into uninfected mice, and no parasitemia developed in these mice even after 30 d. The antimalarial efficacy is defined either as antimalarial activity or as survival: the two readouts of the P. berghei murine model.

[4] = system: P. falciparum NF54 strain; assay: [3H]-hypoxanthine incorporation assay, NF54; format: cell-based, Plasmodium falciparum; conditions: mean ± SD
Method: In vitro time-, stage-, and concentration-dependent effects were assessed using pyrimethamine as a stage-specific and slow-acting control, as described elsewhere.

[5] = system: P. falciparum PfNF54^0230/N3; assay: In vivo efficacy, P. falciparum mouse model (GSK)
Method: In vivo efficacy against P. falciparum was conducted at GSK according to the standard assay previously described. Female NODscidIL2Rγnull mice were engrafted with human erythrocytes and infected with the isolate P. falciparum PfNF54^0230/N3, a strain developed at GSK for growth in engrafted mice. […] Blood samples were collected on Days 3, 4, 5, 6, and 7 (n = 3 per time point) for parasitemia measurement by flow cytometry. Similarly, blood samples were collected at 0.5, 1, 2, 4, 6, 8, 12, 24, and 48 h after a single administration of 4.7 mg/kg of ACT-451840 to a parallel group of three P. falciparum-infected mice for PK parameters determination. Results are expressed exclusively as antimalarial activity in the P. falciparum murine model.

[6] = system: P. vivax clinical isolates (Papua, Indonesia); assay: Ex vivo drug susceptibility, P. vivax clinical isolates; format: cell-based, Plasmodium vivax; conditions: P. vivax clinical isolates, n = 34 (open symbols); read-out: median IC50
Method: […]. Thick blood films made from each well were stained with 5% Giemsa solution for 30 min and examined microscopically. The number of schizonts per 200 asexual-stage parasites was determined for each drug concentration and normalized to the control well.

[7] = General oral toxicity study up to 4 wk, rats; format: in vivo
[8] = Reverse mutation test in vitro
[9] = system: P. falciparum W2 (Vietnam); assay: [3H]-hypoxanthine incorporation assay, W2; format: cell-based, Plasmodium falciparum; conditions: read-out: 50% inhibitory concentration (IC50); W2, resistance CQ, SUL, PYR, CYC; mean ± SD
[10] = system: P. falciparum V1/S (Vietnam); assay: [3H]-hypoxanthine incorporation assay, V1/S; format: cell-based, Plasmodium falciparum; conditions: read-out: 50% inhibitory concentration (IC50); V1/S, resistance CQ, SUL, PYR, CYC; mean ± SD
[11] = Safety pharmacology in rats; format: in vivo; conditions: rats dosed up to 1,000 mg/kg
[12] = system: P. falciparum K1 (Thailand); assay: [3H]-hypoxanthine incorporation assay, K1; format: cell-based, Plasmodium falciparum; conditions: read-out: 50% inhibitory concentration (IC50); K1, resistance CQ, SUL, PYR, CYC; mean ± SD
[13] = General oral toxicity study up to 4 wk, dogs; format: in vivo
[14] = single oral 10 mg/kg in corn oil
[15] = single oral 100 mg/kg in corn oil
[16] = single oral 300 mg/kg in corn oil
[17] = single-dose regimen, oral 10 mg/kg
[18] = single-dose regimen, oral 15 mg/kg
[19] = single-dose regimen, oral 20 mg/kg
[20] = single-dose regimen, oral 25 mg/kg
[21] = single-dose regimen, oral 30 mg/kg
[22] = single-dose regimen, oral 60 mg/kg
[23] = single-dose regimen, oral 80 mg/kg
[24] = single-dose regimen, oral 100 mg/kg
[25] = single-dose regimen, oral 300 mg/kg
[26] = triple-dose regimen, oral 3 mg/kg once per day
[27] = triple-dose regimen, oral 50 mg/kg once per day
[28] = triple-dose regimen, oral 100 mg/kg once per day
[29] = triple-dose regimen, oral 300 mg/kg once per day
[30] = triple-dose regimen, oral 2 x 15 mg/kg (twice per day)
[31] = triple-dose regimen, oral 2 x 30 mg/kg (twice per day)

Compound: CC(=O)N1CCN(c2ccc(CN(C(=O)/C=C/c3ccc(C(C)(C)C)cc3)[C@@H](Cc3ccccc3)C(=O)N3CCN(Cc4ccc(C#N)cc4)CC3)cc2)CC1 [ACT-451840]
- genotoxicity, micronucleus test [1]: not genotoxic
- AUC (ng/mL*h) [2, 14]: 1,780 ± 18%
- Cmax (ng/mL) [2, 14]: 415 ± 20%
- Tmax [2, 14]: 2.5 h
- AUC (ng/mL*h) [2, 15]: 32,900 ± 36%
- Cmax (ng/mL) [2, 15]: 3,910 ± 20%
- Tmax [2, 15]: 6 h
- AUC (ng/mL*h) [2, 16]: 60,900 ± 33%
- Cmax (ng/mL) [2, 16]: 7,010 ± 32%
- Tmax [2, 16]: 7 h
- infected mice cured ([3]; 100 mg/kg triple-dose regimen): 20%
- infected mice cured ([3]; 300 mg/kg triple-dose regimen): 100%
- ED90 ([3]; oral triple-dose regimen, calculated from data in S2 Text): 13 mg/kg
- Antimalarial activity (%) [3, 17]: 21.75%
- Survival [3, 17]: 5.0 days
- Antimalarial activity (%) [3, 18]: 39.00%
- Survival [3, 18]: 5.0 days
- Antimalarial activity (%) [3, 19]: 76.23%
- Survival [3, 19]: 7.0 days
- Antimalarial activity (%) [3, 20]: 90.29%
- Survival [3, 20]: 6.7 days
- Antimalarial activity (%) [3, 21]: 97.42%
- Survival [3, 21]: 7.9 days
- Antimalarial activity (%) [3, 22]: 99.40%
- Survival [3, 22]: 13.7 days
- Antimalarial activity (%) [3, 23]: 98.88%
- Survival [3, 23]: 12.7 days
- Antimalarial activity (%) [3, 24]: 99.19%
- Survival [3, 24]: 12.4 days
- Antimalarial activity (%) [3, 25]: 98.84%
- Survival [3, 25]: 15.7 days
- Antimalarial activity (%) [3, 26]: 0.00%
- Survival [3, 26]: 6.0 days
- Antimalarial activity (%) ([3]; triple-dose regimen, oral 10 mg/kg once per day): 32.25%
- Antimalarial activity (%) ([3]; triple-dose regimen, oral 30 mg/kg once per day): 99.53%
- Antimalarial activity (%) [3, 27]: 99.78%
- Survival [3, 27]: 15.6 days
- Antimalarial activity (%) [3, 28]: 99.84%
- Survival [3, 28]: 21.8 days
- Antimalarial activity (%) [3, 29]: 99.78%
- Survival [3, 29]: 30.0 days
- Antimalarial activity (%) [3, 30]: 99.06%
- Survival [3, 30]: 9.0 days
- Antimalarial activity (%) [3, 31]: 99.81%
- Survival [3, 31]: 14.6 days
- IC90 ([4]; NF54, n ≥ 3): 0.6 nM
- IC99 ([4]; NF54, n ≥ 3): 1.2 ± 0.0 nM
- IC50 ([4]; read-out: 50% inhibitory concentration (IC50), NF54, no resistance, n = 3): 0.4 nM
- total AUC in blood corresponding to the ED90 ([5]; P. falciparum mouse model, quadruple-dose regimen […], linearly extrapolated from single dose of 4.7 mg/kg): 227 ng·h/mL
- effective dose resulting in 90% antimalarial activity (ED90) ([5]; oral quadruple-dose regimen, once a day): 3.7 mg/kg
- IC50 [6]: 3 nM
- no-observed-adverse-effect level ([7]; oral): 100 mg/kg/day
- local gastrointestinal toxicity ([7]; oral up to 2,000 mg/kg/day): no evidence of local gastrointestinal toxicity
- genotoxicity, reverse mutation test [8]: not genotoxic
- IC50 [9]: 0.2 ± 0.1 nM
- IC50 [10]: 0.3 nM
- effects on central nervous and respiratory parameters [11]: no effects
- IC50 [12]: 0.3 nM
- no-observed-adverse-effect level ([13]; oral): 100 mg/kg/day
- local gastrointestinal toxicity ([13]; oral up to 1,000 mg/kg/day): no evidence of local gastrointestinal toxicity
